Entries after “also recorded” stand apart in the source; their conditions may differ.
Experiments:
[1] = system: Rap1; assay: GST pull-down of GTP.Rap1 (Rap1 GTP loading) in Jurkat T cells; type: cell-based, human; details: for lowering of the amount of GTP.Rap1: Jurkat T cells treated overnight, then stimulated with anti CD3 antibodies for 10 minutes, FIG. 1C; for amount of GTP.Rap1 compared with untreated cells: quiescent Jurkat T cells, treated overnight, 50 μM, FIG. 1A; for ability to inhibit Rap1 activation, comparison among agents: 50 μM overnight
Description: (§1) Jurkat T cells were obtained from the American Type Culture Collection (ATCC) (Manassas, VA). The cells were maintained in RPMI 1640 supplemented with 10% FCS, 2 mM 1-glutamine, and 1% penicillin/streptomycin (Biological Industries, Kibutz Beit Haemek, Israel). Panc-1 cells (ATCC) were grown in Dulbecco's modified Eagle medium (DMEM) containing 10% FCS, 2 mM 1-glutamine, and 1% penicillin/streptomycin. The cells were incubated at 37° C. in a humidified atmosphere of 95% air and 5% CO2. Transfection of Jurkat cells was performed with DMRIE-C (Invitrogen, Carlsbad, Calif.), and cells were examined 24 to 48 hours later. Jurkat T cells were serum starved at 37° C. for 2 to 6 hours, followed by stimulation with 5 μg/ml of mouse anti-human CD3.
(§2) Detection of activated Ras and Rap1 was performed as described previously (4, 9).
Samples were separated by SDS-PAGE using 10% polyacrylamide gels and transferred to nitrocellulose filters. Blots were blocked for 1 hour in TBST (10 mM Tris-HCl (pH 8.0), 150 mM NaCl, and 0.05% Tween 20) containing 3% serum bovine albumin, followed by overnight incubation at 4° C. with the primary antibodies. Blots were washed and incubated for 1 hour at room temperature with HRP-conjugated secondary antibodies. Immunoreactive bands were visualized using the LAS-3000 imaging system (Fujifilm Corp., Tokyo).
The experiments were designed to determine whether FTS and its analogs are able to inhibit GTP loading of Rap1. Quiescent Jurkat T cells were treated overnight with FTS, FTS-A, and FTS-MOM, each at a concentration of 50 μM. Cells were collected and the quantity of GTP.Rap1 was determined by pull-down assay. Compared with untreated cells (control), the amount of GTP.Rap1 decreased in all conditions (FIG. 1A). […] Since Rap1 is activated in T cells as a result of crosslinking the antigen receptor, the effect of FTS, and its analogs, on Rap1 activation in stimulated T cells, was studied. Cells were treated with FTS and its analogs overnight, and subsequently stimulated with anti CD3 antibodies for 10 minutes. […] FTS lowered the amount of GTP.Rap1 by 32%, while FTS-A and FTS-MOM lowered it by 60% and 53%, respectively (FIG. 1C). Thus, FTS and its analogs are able to inhibit Rap1 activation in T cells stimulated through the antigen receptor.

[2] = system: Rap1; assay: Rap1 GTP loading in Panc-1 cells; type: cell-based; details: for inhibition of Rap1 GTP loading: Panc-1 cells, FIG. 6A; for selectivity between Ras and Rap1: profile of inhibition Ras versus Rap1
Description: as §1, §2
(§3) Since FTS is known to inhibit Ras, experiments were designed to determine whether the mechanism of Rap1 inhibition by FTS analogs is indirect and mediated by Ras inhibition. Applicants compared the inhibitory profile of FTS and its analogs on both Ras GTP loading and Rap1 GTP loading in Panc-1 cells (FIG. 6B). […] J Med Chem 2009; 52:197-205]. […] Thus, the extent of Ras and Rap1 inhibition by FTS and its analogs is not identical.

[3] = system: Ras; assay: Ras GTP loading in Panc-1 cells; type: cell-based; details: FIG. 6, also as previously reported (ref. 16)
Description: as §1, §2, §3

[4] = system: contact sensitivity reaction to DNFB; assay: Contact sensitivity to DNFB, ear swelling in mice; type: in vivo, BALB/c female mice
Description: The Institutional Ethics Committee of Tel Aviv University approved the study. BALB/c female mice at 8 to 10 weeks of age were used. Oral administration of FTS-A required doses of 50 and 100 mg/kg (10). The compound 2,4-dinitro-l-fluorobenzene (DNFB) and olive oil were obtained from Sigma-Aldrich (St. Louis, Mo.). Mice were sensitized on the shaved abdomen with 50 μl of 0.5% DNFB in a vehicle of 4:1 acetone:olive oil. Mice were ear challenged with 20 μl t of 0.2% DNFB in a vehicle of 4:1 acetone:olive oil after 5 days. A constant area of the ears was measured immediately before challenge and 24 hours later with an engineer's micrometer (Ozaki Mfg. Co., Itabashi, Tokyo). Ear swelling was expressed as the difference in ear thickness before and after the challenge (11).
Next, the ability of FTS-A to inhibit Rap-1-dependent T cell adhesion in vivo was investigated by using contact sensitivity (15) as a model system. Animals were treated orally with two different concentrations of FTS-A (50 mg/kg and 100 mg/kg). […] When treatment was introduced only during the challenge phase (days 5-6), ear swelling was also attenuated.

[5] = system: Rap1; assay: Confocal microscopy of Rap1 localization and activation in Jurkat T cells; type: cell-based, human
Description: Live cells were plated in 35-mm dishes containing a no. 0 glass coverslip over a 15-mm cutout (MatTek, Ashland, Mass). Cells were maintained at 37° C. using a PDMI-2 microincubator (Harvard Apparatus, Holliston, Mass.). Individual cells were imaged before and after addition of stimuli. Images were acquired with a Zeiss 510 inverted laser scanning confocal microscope (Carl Zeiss Microlmaging, Inc., Thornwood, N.Y.) and processed with Adobe Photoshop CS.
It has been reported that only the pool of Rap1 at the plasma membrane becomes GTP bound on lymphocyte activation (9). The following experiments were designed to study whether Rap1 inhibition by FTS-A is indeed restricted to that compartment. Jurkat T cells, expressing GFP tagged Rap1, were subjected to various agents (FIG. 4A), whereas the localization of Rap1 was recorded by confocal microscopy.
The effects of FTS are rather specific to the active GTP-bound forms of Ras proteins (7). To investigate the possible effect of FTS-A on localization of the active Rap1, the probe for activated Rap1, GFP-RBDRALGDS (13), was utilized. […] In cells that were pretreated by FTS-A, the activation of Rap1 at the plasma membrane was blocked (FIG. 4B) although Rap1 remained associated with the plasma membrane (FIG. 4A). Thus, the pool of Rap1 that is inhibited by FTS-A is found at the plasma membrane.

[6] = system: T cells; assay: Viable cell count by tryptan blue exclusion; type: cell-based; details: various concentrations for 72 hours, higher doses, FIG. 3A
Description: Thus, this analog was used for further experiments. First, […] were treated with various concentrations of FTS-A for 72 hours.

[7] = system: Rap1; assay: Rap1 inhibition by geranylgeranyl analogue (data not shown)

| Structure (SMILES) | lowering of the amount of GTP.Rap1 [1] [%] | amount of GTP.Rap1 compared with untreated cells [1] | inhibition of Rap1 GTP loading [2] | selectivity between Ras and Rap1 [2] | inhibition of Ras GTP loading [3] | activation phase of delayed cutaneous hypersensitivity in vivo ([4]; summary statement) | ability to inhibit Rap1 activation, comparison among agents ([1]; Jurkat T cells) | inhibitory effect on Rap1 when Ras is knocked down ([1]; Jurkat T cells, N-Ras and K-Ras knocked down via shRNA, FIG. 6B) | amount of GTP.Rap1, dose-response ([1]; higher doses of FTS-A, FIG. 3B) | activation of Rap1 at the plasma membrane ([5]; GFP-RBDRALGDS probe, pretreated cells stimulated through the antigen receptor, FIG. 4B) | localization of overexpressed Rap1 ([5]; Jurkat T cells expressing GFP tagged Rap1, treatment up to 72 hours, FIG. 4A) | localization of Rap-1 ([5]; combined treatment with Bryostatin-1 and FTS-A, FIG. 4A) | number of viable cells [6] | development of contact sensitivity reaction to DNFB ([4]; animal models, dose not given) | ear swelling ([4]; oral, 50 mg/kg, FIG. 5A) | ear swelling ([4]; oral, 100 mg/kg, FIG. 5A) | ear swelling ([4]; treatment during the sensitization phase (days 0-2), FIG. 5B) | ear swelling ([4]; treatment only during the challenge phase (days 5-6), FIG. 5B) | Rap1 inhibition compared with FTS analogs [7] |
| --- | --- | --- | --- | --- | --- | --- | --- | --- | --- | --- | --- | --- | --- | --- | --- | --- | --- | --- | --- |
| CC(C)=CCC/C(C)=C/CC/C(C)=C/CSc1ccccc1C(=O)O [FTS, S-trans,trans-farnesylthiosalicylic acid] | 32 | decreased | relatively modest | relatively high selectivity of FTS towards Ras | comparable to FTS-A | inhibits | – | – | – | – | – | – | – | – | – | – | – | – | – |
| CC(C)=CCCC(C)=CCCC(C)=CCSc1ccccc1C(N)=O [FTS-A, FTS-amide] | 60 | decreased | much greater inhibitory activity toward Rap1 than FTS | inhibited both Ras and Rap1 | – | – | superior to FTS; also recorded: greatest amount of Rap1 inhibition | unchanged | further diminished | blocked | did not change | did not change | decreased | strongly inhibited | only the higher concentration of FTS-A was able to inhibit ear swelling | able to inhibit ear swelling | did not prevent ear swelling | attenuated | – |
| COCOC(=O)c1ccccc1SCC=C(C)CCC=C(C)CCC=C(C)C [FTS-MOM, methoxymethyl S-farnesylthiosalicylate] | 53 | decreased | by far the stronger Rap1 inhibitor; also recorded: strong Rap1 inhibitor | toward Rap1 | weak Ras inhibitor; also recorded: only a minor inhibitory effect | – | superior to FTS | – | – | – | – | – | – | – | – | – | – | – | – |
| CC(C)=CCC/C(C)=C/CC/C(C)=C/CC/C(C)=C/CSc1ccccc1C(=O)O [GGTS] | – | – | – | – | – | – | – | – | – | – | – | – | – | – | – | – | – | – | did not prove to be a stronger Rap1 inhibitor |
